{"source": "paper PMC10394516", "about": "“The pharmacokinetic profile of brensocatib and its effect on pharmacodynamic biomarkers including NE, PR3, and CatG in various rodent species” (Frontiers in Pharmacology, 2023)", "tested_on": "CatG", "assay": "Bone marrow CatG activity after repeated dosing, Sprague Dawley rats", "format": "in vivo", "details": "for Reduction of CatG activity vs vehicle / Change From Vehicle Control (%) CatG: 9 days", "experimental": "Briefly, animals were weighed and randomized into different treatment groups. In total, three different dosing levels of brensocatib were tested in each species and strain; each QD dosing level was equivalent to 1.5-times the matching daily BID dose. For BID dosing, the second daily dose was administered 8-h post the morning dose. C57BL/6 mice were dosed either BID or QD for 7 consecutive days at 0/0, 0.5/0.75, 2/3, and 20/30 mg/kg/day (BID/QD). BALB/c mice were dosed for 7 consecutive days at 0/0, 0.2/0.3, 2/3, and 20/30 mg/kg/day (BID/QD). SD rats were dosed for 9 consecutive days at 0/0, 0.2/0.3, 2/3, and 20/30 mg/kg/day (BID/QD). Wistar rats were dosed for 7 consecutive days at 0/0, 0.2/0.3, 2/3, and 20/30 mg/kg/day (BID/QD).\nAt the completion of the study, animals were sacrificed 16–24 h post their final dose. The hind limb bones (femurs and tibias) were collected at necropsy for bone marrow analysis of NSP activities by kinetic enzymatic assays ([Basso et al., 2022]). See section Quantification of Bone Marrow NSP Activities for details.\nFor the mice, each animal had the femurs and tibias of both hind limbs harvested. For the rat, the femur and tibia from a single hind limb per animal was harvested. Bones were kept on wet ice until processing for bone marrow collection. In brief, bone cutters were used to cut the epiphysis (knobby ends) off the long bones to expose the bone marrow filled cavity. Each bone cavity was then flushed with 5 mL/bone (mouse) or 10 mL/bone (rat) of ice-cold RPMI media through a […] and collected in a 50-mL conical tube. Cells were spun down at 2,500 × g at 4°C for 5 min and the supernatant was aspirated. After which, bone marrow cells were lysed with 1X red blood cell (RBC) lysis buffer (Abcam, ab204733) to eliminate contaminating RBCs and washed with PBS to remove any residual RBC lysis buffer. The resulting white blood cells (WBC) were subsequently lysed with 1% (v/v) Triton X-100 in PBS. Lysates were added to 96-well plates and stored at −80°C until NSP analyses.\nBone marrow lysates prepared as described above were diluted and plated onto 96-well assay plates to quantify NSP activities as described previously ([Basso et al., 2022]). Briefly, peptide substrates for NE (N-Methoxysuccinyl-Ala-Ala-Pro-Val-7-amido-4-methylcoumarin; Sigma; St. Louis, MO; Excitation/Emission at 350/450 nm), PR3 ((7-Methoxycoumarin-4-yl)acetyl-lysyl-(picolinoyl)-Tyr-Asp-Ala-Lys-Gly-Asp-N-3-(2-4-dinitrophenyl)-2-3-diaminopropyonyl-NH2); GenScript; Piscataway, NJ; Excitation/Emission at 340/430 nm), and CatG (N-Succinyl-Ala-Ala-Pro-Phe p nitroanilide; Sigma; Absorbance at 405 nm) were added at a final assay concentration of 100 μM, 40 μM, and 200 μM, respectively, and either fluorescence or absorbance was quantified using a Synergy microplate reader (BioTek; Winooski, VT). The specific NSP activity in each sample was calculated as the total activity minus the activity in the presence of a specific NSP inhibitor (if used), including elastase inhibitor (Abcam) for NE, sivelestat (Abcam) for PR3, and cathepsin G inhibitor I (Cayman Chemical; Ann Arbor, MI) for CatG. NSP concentrations were interpolated based on their activities relative to the standard curves created using active human NE protein (Sigma), active human PR3 protein (Sigma), and active human CatG protein (Sigma), respectively. Due to unavailability of commercial mouse and/or rat NE, PR3, and CatG proteins, the corresponding human proteins were used instead since their catalytic ability is considered to be conserved across species. A portion of each cell lysate sample was retained for protein quantification using a Pierce™ BCA Protein Assay Kit (Thermo Fisher). The NSP activities were normalized for the cell lysate protein concentrations.\nThe Pierce™ BCA Protein Assay Kit was used to measure the total protein of the samples after lysis to allow for subsequent normalization. […]"}
{"smiles": "Cn1c(=O)oc2ccc(-c3ccc(C[C@@H](C#N)NC(=O)[C@@H]4CNCCCO4)cc3)cc21", "note": "[brensocatib]", "values": [{"measurement": "Reduction of CatG activity vs vehicle", "setting": "BID highest dose (20 mg/kg/day)", "value": 37, "unit": "%"}, {"measurement": "Reduction of CatG activity vs vehicle", "setting": "QD highest dose (30 mg/kg/day)", "value": 43, "unit": "%"}, {"measurement": "Combined BID and QD percent reduction, CatG", "setting": "highest dose level 20/30 (BID/QD) mg/kg/day", "value": 40, "unit": "%"}, {"measurement": "Change From Vehicle Control (%) CatG", "setting": "oral BID 0.2 mg/kg/day", "value": "+4% (p = 0.9857)"}, {"measurement": "Change From Vehicle Control (%) CatG", "setting": "oral BID 2 mg/kg/day", "value": "+2% (p = 0.9972)"}, {"measurement": "Change From Vehicle Control (%) CatG", "setting": "oral BID 20 mg/kg/day", "value": "−37% (p = 0.0420)"}, {"measurement": "Change From Vehicle Control (%) CatG", "setting": "oral QD 0.3 mg/kg/day", "value": "−9% (p = 0.9235)"}, {"measurement": "Change From Vehicle Control (%) CatG", "setting": "oral QD 3 mg/kg/day", "value": "−13% (p = 0.8203)"}, {"measurement": "Change From Vehicle Control (%) CatG", "setting": "oral QD 30 mg/kg/day", "value": "−43% (p = 0.0348)"}]}
